Results on 15 molecules are retold here after article PMC7956643, “Synthesis of Novel Pyrido[1,2-c]pyrimidine Derivatives with 6-Fluoro-3-(4-piperidynyl)-1,2-benzisoxazole Moiety as Potential SSRI and 5-HT1A Receptor Ligands” (International Journal of Molecular Sciences, 2021).

Marks after values point to notes of the source that are not given here.

One series addresses T1, human 5-HT1A receptor (Homo sapiens, UniProt P08908).
T1 construct: purchased PerkinElmer; host or cells: CHO-K1 cells, stably transfected
T1 sequence (P08908 1-422): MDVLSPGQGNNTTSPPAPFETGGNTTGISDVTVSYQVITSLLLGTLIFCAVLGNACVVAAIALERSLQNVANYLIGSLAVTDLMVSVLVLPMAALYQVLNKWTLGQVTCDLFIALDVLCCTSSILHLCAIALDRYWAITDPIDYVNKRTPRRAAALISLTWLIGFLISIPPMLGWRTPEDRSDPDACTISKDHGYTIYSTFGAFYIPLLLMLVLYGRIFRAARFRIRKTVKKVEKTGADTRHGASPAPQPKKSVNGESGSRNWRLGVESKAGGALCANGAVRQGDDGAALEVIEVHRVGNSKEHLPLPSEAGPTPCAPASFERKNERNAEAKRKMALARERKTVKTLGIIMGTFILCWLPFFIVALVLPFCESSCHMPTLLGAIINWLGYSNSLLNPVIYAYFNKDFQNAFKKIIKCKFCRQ
Kind of series: 5-HT1A radioligand binding assay. The note with it: [3H]-8-OH-DPAT 1 nM; membranes from CHO-K1 cells with human 5-HT1A receptor. As to the method: Radioligand binding was performed using membranes from CHO-K1 cells stably transfected with the human 5-HT1A receptor (PerkinElmer, Fremont, CA, USA). All assays were carried out in duplicate. Then, 50 µL working solution of the tested compounds, 50 µL [^3H]-8-OH-DPAT (final concentration 1 nM) and 150 µL diluted membranes (20 µg protein per well) prepared in assay buffer (50 mM Tris, pH 7.4, 10 mM MgSO4, 0.5 mM EDTA, 0.1% ascorbic acid) were transferred to a polypropylene 96-well microplate using 96-wells pipetting station Rainin Liquidator (MettlerToledo, Columbus, OH, USA). […] The reaction was terminated by rapid filtration through GF/B filter mate, presoaked with 0.5% polyethyleneimine for 30 min. Ten rapid washes with 200 µL 50 mM Tris buffer (4 °C, pH 7.4) were performed using an automated harvester system—Harvester-96 MACH III FM (Tomtec, Hamden, CT, USA). […] Data were fitted to a one-site curve-fitting equation with Prism 6 (GraphPad Software, San Diego, CA, USA) and Ki values were estimated from the Cheng–Prusoff equation.

The target of the next series is T2, SERT protein (Rattus norvegicus, UniProt P31652).
T2 construct: from tissue; host or cells: rat cortex
T2 sequence (P31652 whole entry): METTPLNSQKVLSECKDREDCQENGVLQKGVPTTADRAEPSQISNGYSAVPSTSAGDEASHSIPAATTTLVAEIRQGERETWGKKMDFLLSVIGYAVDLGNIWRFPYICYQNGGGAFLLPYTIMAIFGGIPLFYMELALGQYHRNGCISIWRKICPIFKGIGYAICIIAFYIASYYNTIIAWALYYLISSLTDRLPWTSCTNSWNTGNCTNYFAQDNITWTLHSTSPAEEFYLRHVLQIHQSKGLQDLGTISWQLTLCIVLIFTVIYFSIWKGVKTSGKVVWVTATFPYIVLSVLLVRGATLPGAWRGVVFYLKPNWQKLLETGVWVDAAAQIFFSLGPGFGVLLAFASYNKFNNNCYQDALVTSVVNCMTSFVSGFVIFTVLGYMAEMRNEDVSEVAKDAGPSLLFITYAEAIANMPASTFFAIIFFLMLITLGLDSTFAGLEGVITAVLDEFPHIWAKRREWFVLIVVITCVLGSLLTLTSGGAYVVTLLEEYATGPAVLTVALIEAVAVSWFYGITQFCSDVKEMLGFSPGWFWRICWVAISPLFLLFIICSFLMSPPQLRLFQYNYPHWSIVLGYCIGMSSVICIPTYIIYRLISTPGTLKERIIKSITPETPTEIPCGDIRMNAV
Kind of series: SERT radioligand binding assay. The note with it: [3H]-citalopram 1.0 nM; rat cortex tissue. The method, then: Radioligand binding was performed using rat cortex tissue. All assays were carried out in duplicate. First, 50 µL working solution of the tested compounds, 50 µL [^3H]-citalopram (final concentration 1.0 nM) and 150 µL tissue suspension, prepared in assay buffer (50 mM Tris. pH 7.7; 150 mM NaCl; 5 mM KCl), were transferred to a polypropylene 96-well microplate using 96-wells pipetting station Rainin Liquidator (MettlerToledo). […] The reaction was terminated by rapid filtration through GF/B filter mate presoaked with 0.3% polyethyleneimine for 30 min. Ten rapid washes with 200 µL 50 mM Tris buffer (4 °C, pH 7.7) were performed using an automated harvester system—Harvester-96 MACH III FM (Tomtec). […] Data were fitted to a one-site curve-fitting equation with Prism 6 (GraphPad Software) and Ki values were estimated from the Cheng–Prusoff equation.

The next series has as its target T3, 5-HT1A receptor (Mus musculus, UniProt Q64264).
T3 construct: from tissue; host or cells: whole animal, male CD-1 mice
T3 sequence (Q64264 1-421): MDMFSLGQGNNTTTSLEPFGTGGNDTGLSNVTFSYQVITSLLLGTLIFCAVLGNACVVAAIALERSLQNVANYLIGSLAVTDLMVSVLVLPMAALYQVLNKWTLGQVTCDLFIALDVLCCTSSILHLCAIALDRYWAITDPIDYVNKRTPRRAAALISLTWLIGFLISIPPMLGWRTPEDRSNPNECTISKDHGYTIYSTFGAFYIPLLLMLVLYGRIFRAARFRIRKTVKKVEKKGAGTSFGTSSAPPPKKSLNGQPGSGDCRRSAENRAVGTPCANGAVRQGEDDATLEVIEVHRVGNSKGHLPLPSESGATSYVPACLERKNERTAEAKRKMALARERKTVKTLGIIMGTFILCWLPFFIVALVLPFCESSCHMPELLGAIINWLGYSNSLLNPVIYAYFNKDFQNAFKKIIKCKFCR
Kind of series: Body temperature in mice (induced hypothermia). The note with it: mice, 5 mg/kg sc. The class given is in vivo, CD-1 mice. As to the method: The experiments were performed on male CD-1 mice (23–40 g). The animals were kept at room temperature (21 ± 2 °C) on a natural day-night cycle (March–October) and housed under standard laboratory conditions. They had free access to food and tap water before the experiment. Each experimental group consisted of 6–8 animals/dose. All the animals were used only once. 8-Hydroxy-2-(di-n-propylamino)tetralin hydro-bromide (8-OH-DPAT, Research Biochemical Inc.) was used as aqueous solution. […] Vehicle group was administered as 10% aqueous solution of dimethyl sulphoxide (DMSO). 8-OH-DPAT was injected subcutaneously (sc); 6a and 7g were given intraperitoneally (ip) in a volume of 10 mL/kg/mice. The obtained data were analyzed by Dunnett’s test (one drug administration) or by the Newman–Keuls test (two drugs administrations). Forced swim test: the obtained data was evaluated by one-way analysis of variance (ANOVA) followed by the Dunnett’s multiple comparisons test: p < 0.05 was considered significant.
The results were expressed as a change in body temperature (Δt) with respect to the basal body temperature, as measured at the beginning of the experiment.

Consider `Cc1ccccc1-c1c(=O)n(CCCCN2CCC(c3noc4cc(F)ccc34)CC2)c(=O)n2ccccc12` [Compound 6b, 4-(2-Methylphenyl)-2-{4-[4-(6-fluoro-1,2-benzoxazol)-1-piperidyl]butyl}-pyrido[1,2-c]pyrimidine-1,3-dione], for which the melting point (in general, the temperature, or range, at which the solid turns liquid) lay in the range of 120 to 122 °C. In addition, the inhibition constant (Ki) (commonly the equilibrium dissociation constant of an inhibitor or competing ligand from its target) on human 5-HT1A receptor was 30 ± 3.5 nM. Moreover, the Ki at SERT protein is over 5000 nM.

In the case of `COc1ccccc1-c1c(=O)n(CCCCN2CCC(c3noc4cc(F)ccc34)CC2)c(=O)n2ccccc12` [Compound 6c, 4-(2-Methoxphenyl)-2-{4-[4-(6-fluoro-1,2-benzoxazol)-1-piperidyl]butyl}-pyrido[1,2-c]pyrimidine-1,3-dione], the melting point was in the range of 65 to 70 °C. The Ki on human 5-HT1A receptor was determined as 7 ± 1 nM. The molecule also gave a Ki on SERT protein of over 5000 nM.

`O=c1c(-c2ccccc2F)c2ccccn2c(=O)n1CCCCN1CCC(c2noc3cc(F)ccc23)CC1` [Compound 6e, 4-(2-Fluorophenyl)-2-{4-[4-(6-fluoro-1,2-benzoxazol)-1-piperidyl]butyl}-pyrido[1,2-c]pyrimidine-1,3-dione] had a melting point of 58 to 62 °C. The Ki on human 5-HT1A receptor was 15 ± 0.6 nM. Further, the inhibitory constant (Ki) on SERT protein is over 1000 nM.

Consider `Cc1ccc(-c2c(=O)n(CCCCN3CCC(c4noc5cc(F)ccc45)CC3)c(=O)n3ccccc23)cc1` [Compound 6f, 4-(4-Methylphenyl)-2-{4-[4-(6-fluoro-1,2-benzoxazol)-1-piperidyl]butyl}-pyrido[1,2-c]pyrimidine-1,3-dione], for which the melting point was in the range of 158 to 159 °C. The molecule further returned a Ki on human 5-HT1A receptor of 74 ± 4 nM. For the same molecule, at SERT protein, the affinity, expressed as Ki, was 772 ± 36 nM.

The molecule `COc1ccc(-c2c(=O)n(CCCCN3CCC(c4noc5cc(F)ccc45)CC3)c(=O)n3ccccc23)cc1` [Compound 6g, 4-(4-Methoxyphenyl)-2-{4-[4-(6-fluoro-1,2-benzoxazol)-1-piperidyl]butyl}-pyrido[1,2-c]pyrimidine-1,3-dione] showed a melting point of 163 to 166 °C. The Ki on human 5-HT1A receptor amounted to 10 ± 1.1 nM. Further, on SERT protein, the affinity, expressed as Ki, was 730 ± 79 nM.

`O=c1c(-c2ccc(Cl)cc2)c2ccccn2c(=O)n1CCCCN1CCC(c2noc3cc(F)ccc23)CC1` [Compound 6h, 4-(4-Chlorophenyl)-2-{4-[4-(6-fluoro-1,2-benzoxazol)-1-piperidyl]butyl}-pyrido[1,2-c]pyrimidine-1,3-dione] showed a melting point of 152 to 155 °C. On human 5-HT1A receptor, this molecule had an inhibition constant (Ki) of 21 ± 1.5 nM. Besides, the affinity on SERT protein, expressed as Ki, was 310 ± 1 nM.

For `O=c1c(-c2ccc(F)cc2)c2ccccn2c(=O)n1CCCCN1CCC(c2noc3cc(F)ccc23)CC1` [Compound 6i, 4-(4-Fluorophenyl)-2-{4-[4-(6-fluoro-1,2-benzoxazol)-1-piperidyl]butyl}-pyrido[1,2-c]pyrimidine-1,3-dione], the melting point fell in the range of 102 to 107 °C. The affinity on human 5-HT1A receptor, expressed as Ki, was 17 ± 2 nM. At SERT protein, affinity was put at a Ki of 342 ± 28.8 nM.

Regarding `O=c1c(-c2ccccc2)c2n(c(=O)n1CCCCN1CCC(c3noc4cc(F)ccc34)CC1)CCCC2` [Compound 7a, 4-Phenyl-2-{4-[4-(6-fluoro-1,2-benzoxazol-3-yl)-1-piperidyl]butyl}-5,6,7,8-tetrahydro-pyrido[1,2-c]pyrimidine-1,3-dione], the melting point fell in the range of 110 to 113 °C. Moreover, on human 5-HT1A receptor, the Ki was 27 ± 2 nM. The same molecule yielded an inhibitory constant (Ki) on SERT protein of 520 ± 58.8 nM.

Take `Cc1ccccc1-c1c2n(c(=O)n(CCCCN3CCC(c4noc5cc(F)ccc45)CC3)c1=O)CCCC2` [Compound 7b, 4-(2-Methylphenyl)-2-{4-[4-(6-fluoro-1,2-benzoxazol)-1-piperidyl]butyl}-5,6,7,8-tetrahydro-pyrido[1,2-c]pyrimidine-1,3-dione]: the Ki was 35 ± 3.5 nM at human 5-HT1A receptor and over 1000 nM on SERT protein.

In the case of `COc1ccccc1-c1c2n(c(=O)n(CCCCN3CCC(c4noc5cc(F)ccc45)CC3)c1=O)CCCC2` [Compound 7c, 4-(2-Methoxphenyl)-2-{4-[4-(6-fluoro-1,2-benzoxazol)-1-piperidyl]butyl}-5,6,7,8-tetrahydro-pyrido[1,2-c]pyrimidine-1,3-dione], the Ki is 62 ± 6 nM on human 5-HT1A receptor and 878 ± 88 nM on SERT protein.

`O=c1c(-c2ccccc2Cl)c2n(c(=O)n1CCCCN1CCC(c3noc4cc(F)ccc34)CC1)CCCC2` [Compound 7d, 4-(2-Chlorophenyl)-2-{4-[4-(6-fluoro-1,2-benzoxazol)-1-piperidyl]butyl}-5,6,7,8-tetrahydro-pyrido[1,2-c]pyrimidine-1,3-dione]: the figures for the Ki at human 5-HT1A receptor and on SERT protein were 71 ± 6.9 nM and 310 ± 34.5 nM, respectively.

For `O=c1c(-c2ccccc2F)c2n(c(=O)n1CCCCN1CCC(c3noc4cc(F)ccc34)CC1)CCCC2` [Compound 7e, 4-(2-Fluorophenyl)-2-{4-[4-(6-fluoro-1,2-benzoxazol)-1-piperidyl]butyl}-5,6,7,8-tetrahydro-pyrido[1,2-c]pyrimidine-1,3-dione], the figures for the Ki at human 5-HT1A receptor and at SERT protein were 36 ± 4.1 nM and over 1000 nM, respectively.

As for `Cc1ccc(-c2c3n(c(=O)n(CCCCN4CCC(c5noc6cc(F)ccc56)CC4)c2=O)CCCC3)cc1` [Compound 7f, 4-(4-Methylphenyl)-2-{4-[4-(6-fluoro-1,2-benzoxazol)-1-piperidyl]butyl}-5,6,7,8-tetrahydro-pyrido[1,2-c]pyrimidine-1,3-dione], the melting point lay within 107 to 110 °C. The Ki at human 5-HT1A receptor stood at 52 ± 2.5 nM. On SERT protein, this molecule gave an inhibition constant (Ki) of 1770 ± 180 nM.

In turn, `O=c1c(-c2ccc(Cl)cc2)c2n(c(=O)n1CCCCN1CCC(c3noc4cc(F)ccc34)CC1)CCCC2` [Compound 7h, 4-(4-Chlorophenyl)-2-{4-[4-(6-fluoro-1,2-benzoxazol)-1-piperidyl]butyl}-5,6,7,8-tetrahydro-pyrido[1,2-c]pyrimidine-1,3-dione] displayed a melting point of 116 to 120 °C. At human 5-HT1A receptor, this molecule registered a Ki of 25 ± 3 nM. In addition, the inhibitory constant (Ki) on SERT protein was 290 ± 22.7 nM.

For the molecule `CCCN(CCC)C1CCc2cccc(O)c2C1` (stereo not drawn) [Compound 8-OH-DPAT, 8-Hydroxy-2-(di-n-propylamino)tetralin hydro-bromide, reference compound], the “Δt ± SEM, body temperature” value is −1.7 ± 0.2 ^b °C on 5-HT1A receptor (30 min), −1.1 ± 0.2 ^b °C at 5-HT1A receptor (60 min), −0.1 ± 0.1 °C on 5-HT1A receptor (90 min) and 0.3 ± 0.3 °C at 5-HT1A receptor (120 min).
